Tests used:
ovulation in female rats = test: in vivo testing of effectiveness to prevent ovulation in female rats; set-up: species or system Sprague-Dawley rats; conditions: injected at about noon on the day of proestrus, rats ovulating/rats treated
Procedure: The in vivo testing determines effectiveness to prevent ovulation in female rats. In this test, a specified number of mature female Sprague-Dawley rats, e.g. five to ten, each having a body weight from 225 to 250 grams, is injected with a specified microgram dosage of peptide in either saline, bacteriostatic water, polyethylene glycol, corn oil or mixtures of the above with ethanol at about noon on the day of proestrus. Proestrus is the afternoon […]. A separate female rat group is used as a control to which the peptide is not administered. Each of the control female rats ovulates on the evening of proestrus; of the rats treated, the number of them which ovulate is recorded. Each of the peptides is considered to be totally effective to prevent ovulation of female rats at a dose of about 500 micrograms.

[1] = system: LH levels in the bloodstream; test: suppression of circulating LH in castrate male rats after single IV bolus; type: in vivo, Sprague-Dawley rats
From the text: In addition to the in vivo testing, mentioned above, to determine effectiveness to prevent ovulation in female rats, groups of about 6 adult castrate male Sprague-Dawley rats, each having a body weight from 225 to 250 grams, are each injected IV with a 50 microgram dosage of either Peptide No. 103A or a standard antagonist referred to as the Nal-Glu antagonist (see J. Clin. Edno. Metab., 71, 4, 881-888 (1990)) in either corn oil or a phosphate buffer in the presence of BSA (bovine serum albumin). A separate rat group is used as a control, to which only the carrier is administered. Each of the control rats and the rats being treated are monitored for LH levels in the bloodstream at about 3 hours, 24 hours, 36 hours and 48 hours following this single bolus injection.

| Substance | Rats Ovulating (ovulation in female rats; dosage 1.0 micrograms) | Rats Ovulating (ovulation in female rats; dosage 2.5 micrograms) | level of circulating LH in the bloodstream relative to Nal-Glu antagonist ([1]; 50 microgram IV, after 12 hours) | level of circulating LH in the bloodstream relative to control ([1]; 50 microgram IV, monitored at about 3, 24, 36 and 48 hours) | duration of biological effect (LH suppression) ([1]; single 50 microgram IV bolus injection) | Rats Ovulating (ovulation in female rats; dosage 0.5 micrograms) |
| --- | --- | --- | --- | --- | --- | --- |
| Ac-β-D-2NAL-(4Cl)D-Phe-D-3PAL-Ser-Lys (isopropyl cyanoguanidino)-D-Lys(isopropyl cyanoguanidino)-Leu-Lys(isopropyl)-Pro-D-Ala-NH2 [Peptide 1] | 0/5 | 0/9 |  |  |  |  |
| Ac-β-D-2NAL-(4Cl)D-Phe-D-3PAL-Ser-Aph(3-amino 1,2,4 triazole)-D-Aph(3-amino 1,2,4 triazole)-Leu-Lys(isopropyl)-Pro-D-Ala-NH2 [Peptide 103A] | 0/7 | 0/8 | below that of the rats treated with the Nal-Glu antagonist | very substantially below that of the control | very long-acting | 7/8 |
